Test results reported in patent publication US20240197900A1, “DISACCHARIDE LINKER, DISACCHARIDE-SMALL MOLECULE DRUG CONJUGATE AND SUGAR CHAIN FIXED-POINT ANTIBODY-DRUG CONJUGATE, AND PREPARATION METHOD THEREFOR AND USE THEREOF” (priority 2021, published 2024).

Target: Endo-S2 (Streptococcus pyogenes serotype M49, UniProt T1WGN1)
Assay: Screening of sugar substrates: transfer of oxazoline substrates to deglycosylated antibody by Endo-S2
Assay type: biochemical
Conditions: substrate 1.5 mM, (Fuc α1,6)GlcNAc-Herceptin 5 mg/mL, Endo-S2 0.2 mg/mL, 3 h; for recognition by / transfer activity of Endo-S2 (in words): 30° C., FIG. 1B
Method: Different sugar substrates (1 equivalent, including monosaccharide, disaccharide and trisaccharide structures) were weighed and dissolved in 50 mM PB, pH 7.0 buffer, CDMBI (5 equivalents) was added to the above system, mixed well and cooled to 0° C. Potassium phosphate (15 eq) was added, the final concentration of the sugar substrates in the reaction system was 10 mM, and the reaction was carried out at 0° C. for 2 h. Plenty of precipitate was observed, which was removed by centrifugation. The supernatant was oxazoline substrates G1, G12, G15-G20 containing salts, which were directly used for the next step of screening.
Oxazoline substrates (G1, G12, G15-G20), deglycosylated antibody (Fuc α1.6) GlcNAc-Herceptin and endoglycosidase Endo-S2 were sequentially added to 50 mM Tris-HCl, pH 7.2 buffer, such that the final concentrations of each were 1.5 mM, 5 mg/mL, and 0.2 mg/mL, respectively, which was incubated at 30° C. for 3 h for detection by mass spectrometry. At the same time, a control group without endoglycosidase was set to eliminate the influence of non-enzymatic reactions.

Endo-S2, sequence (T1WGN1 37-843): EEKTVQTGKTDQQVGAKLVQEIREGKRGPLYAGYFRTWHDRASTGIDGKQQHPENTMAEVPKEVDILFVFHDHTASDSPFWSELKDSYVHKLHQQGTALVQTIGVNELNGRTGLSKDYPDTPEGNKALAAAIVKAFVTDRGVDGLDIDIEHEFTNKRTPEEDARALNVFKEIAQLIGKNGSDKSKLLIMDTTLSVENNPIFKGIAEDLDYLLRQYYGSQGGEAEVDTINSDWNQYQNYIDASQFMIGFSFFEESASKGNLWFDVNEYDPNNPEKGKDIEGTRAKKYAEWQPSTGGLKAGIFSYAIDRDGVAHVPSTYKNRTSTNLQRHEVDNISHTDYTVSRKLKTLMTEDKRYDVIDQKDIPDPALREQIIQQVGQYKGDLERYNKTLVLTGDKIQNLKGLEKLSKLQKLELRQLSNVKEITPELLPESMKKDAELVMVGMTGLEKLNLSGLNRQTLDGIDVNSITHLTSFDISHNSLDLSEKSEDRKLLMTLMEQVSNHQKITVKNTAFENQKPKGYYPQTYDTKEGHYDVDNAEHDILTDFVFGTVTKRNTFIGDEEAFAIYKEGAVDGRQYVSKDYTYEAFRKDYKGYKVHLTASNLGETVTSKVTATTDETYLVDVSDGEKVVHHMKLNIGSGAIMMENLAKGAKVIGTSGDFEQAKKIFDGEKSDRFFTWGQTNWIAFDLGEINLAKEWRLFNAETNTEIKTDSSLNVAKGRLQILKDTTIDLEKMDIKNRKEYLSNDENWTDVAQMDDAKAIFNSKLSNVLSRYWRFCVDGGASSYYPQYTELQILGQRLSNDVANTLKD

SMILES | transfer efficiency to the deglycosylated antibody (Tris-HCl pH 7.2, 30° C., mass spectrometry) | recognition by / transfer activity of Endo-S2 (in words)
CC1=NC2[C@@H](O1)OC(CO)[C@@H](O[C@@H]1OC(CO)[C@H](O)[C@H](O)C1O)[C@@H]2O (stereo partly drawn) [G1] | 68% | 
CC(=O)N[C@H]1C([C@H](O)[C@H](O)CO)O[C@@](OCC2O[C@@H](O[C@@H]3C(CO)O[C@@H]4OC(C)=NC4[C@H]3O)C(O)[C@@H](O)[C@H]2O)(C(=O)O)C[C@H]1O (stereo partly drawn) [G12] |  | well recognized
CC1=NC2C(O[C@@H]3OC(C)[C@@H](O)C(O)C3O)[C@H](O[C@@H]3OC(CO)[C@H](O)C(O)C3O)C(CO)O[C@@H]2O1 (stereo partly drawn) [G20] |  | greatly reduced
